Where no end group is shown, it is not given here. C11H22NO6P = phosphorylcholine group attached via 2-methacryloyloxyethyl phosphorylcholine
Legend:
C57BL/6 mice = experiment: Therapeutic DSS colitis model (immunization between DSS cycles); format: in vivo, mouse
Description: DSS-Induced Colitis and Assessment. Before inducing colitis, mice from each treatment group were divided amongst the cages to avoid any cage-related disease effects. This excluded the PBS without DSS (healthy) control mice which remained in their own cage and received normal drinking water for the duration of the experiment. Colitis was induced by administering 2% (w/v) colitis-grade dextran sodium sulfate (MP Biomedicals, 160110) in drinking water. For determination of prophylactic immunization efficacy, mice were immunized i.p. 3 times at days −35, −21 and −7 before colitis induction on Day 0. Chronic colitis was induced via DSS-containing water given for 5 days followed by 5 days of normal drinking water for 3 cycles, resulting in a 30-day model. A shorter, acute DSS-induced colitis model consisting of one cycle of colitis was achieved by giving 5 days of 2% DSS in water followed by 5 days of normal drinking water for a total of 10 days and was also examined in a preventative immunization scenario. Mice were weighed daily and evaluated for the IACUC approved humane endpoint of >30% weight loss as DSS mice regain weight quickly after DSS administration ceases. They were also monitored for occult blood with Hemoccult tape and developer (Beckman Coulter, 63202) and fecal consistency. […] At the experimental endpoint, mice were euthanized, and colon lengths were measured from the base of the cecum to the rectum using digital calibrators. […] Mice were monitored daily as described above until they on average regained their original body weight on day 20. […] The entire therapeutic model ended on day 60, and colon lengths were measured as described above.
FITC-dextran Measurements. […] To determine the intestinal barrier permeability, serum samples were diluted in 1×PBS and FITC fluorescence intensity was measured at an excitation of 488 nm and emission of 520 nm. […]
Spleen Bacteria Measurements. […] After a 48 hr incubation at 37° C., colony forming units (CFUs) were counted and converted to CFU/g of spleen tissue via the equations: […]

B1a cells (CD19^+CD5^+) = experiment: Colon B cell populations by flow cytometry: B1a cells; format: in vivo, mouse; details: vs other DSS-administered mice
Method: (§1) Determination of Colon B cell Populations. Small colon samples collected from either after immunization only or after colitis experiments were collected at experimental endpoints. Colon samples were flushed with PBS and then digested in a solution containing 200 U/mL collagenase from Clostridium histolyticum (Sigma, C5138) and 0.1 mg/mL DNase I (Sigma, 10104159001) in 1×PBS. Digestion occurred at 37° C. while shaking for a total of 30 minutes. The solutions were then filtered to isolate cells, spun down, and transferred into ice cold flow buffer (2% heat-inactivated FBS in 1×PBS). The cells were blocked with mouse BD Fc Block (Clone: 2.4G2) (BD Biosciences, 553142) for 30 min on ice and then washed in flow buffer and stained with antibodies against CD5-APC (Clone: 53-7.3) (BioLegend, 100626), CD19-APC/Cy7 (Clone: 6D5) (BioLegend, 115530), B220-PE (Clone: RA3-6B2) (BioLegend, […]), and CD138-PE/Cy7 (Clone: 281-2) (BioLegend, […]) in flow buffer for 30 min on ice. Cells were washed and DAPI was added. Flow cytometry was then conducted on a BD FACSCanto II cytometer and the results were analyzed using FlowJo software.

[1] = system: plasma cells (B220^+CD138^+); experiment: Colon B cell populations by flow cytometry: plasma cells; format: in vivo, mouse; details: vs disease controls
Method: as §1

[2] = Zeta potential of nanofibers; format: physicochemical; details: 1 mM conjugate coassembled with 1 mM Q11; 0.2 mM in 1×PBS, 25° C.
Method: Zeta Potential. Nanofibers were diluted to 0.2 mM in 1×PBS and zeta potential measurements were conducted at 25° C. using an Anton Paar Litesizer 500.

Substance | anti-PC IgG responses in mice with prior DSS colitis (C57BL/6 mice; i.p. days 20, 32, 45, without CpG, vs immunization in absence of prior colitis) | IgG subclasses in mice with prior DSS colitis (C57BL/6 mice; mouse, in vivo) | anti-PC IgM response in mice with prior DSS colitis (C57BL/6 mice; without CpG) | colonic B1a cells after chronic DSS colitis (B1a cells (CD19^+CD5^+)) | colon plasma cells after chronic DSS colitis [1] | zeta potential (surface charge) of nanofibers [2]
(C11H22NO6P)n-CCCCSGSG-QQKFQFQFEQQ-NH2 (CCCCSGSGQQKFQFQFEQQ-NH2; not fully specified; cysteine pairing not given here; also: phosphorylcholine groups (C11H22NO6P) n=1-4, attachment not placed) [PCM-Q11, linear multi-PC conjugate] | higher anti-PC IgG responses | not altered | measurable anti-PC IgM response | decrease in B1a cells | more plasma cells than disease controls | 
C11H22NO6P-CSGSG-QQKFQFQFEQQ-NH2 (C(C11H22NO6P)SGSGQQKFQFQFEQQ-NH2) [PC-Q11, phosphodiester PC-Q11] |  |  |  |  |  | neutrally charged

Reference: patent US20250281629A1, “COMPOSITIONS AND METHODS FOR ANTI-PHOSPHOCHOLINE ACTIVE IMMUNOTHERAPY” (Duke University, priority 2022, published 2025)
